# In PubChem BioAssay (NCI):
#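 Tested at 5 concentrations; 48 h exposure; 96-well plates; endpoints linearly interpolated, else capped at highest concentration. At the GI50, growth is halved. Definition used: TGI = concentration required for complete inhibition of growth.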
# Assays:
# Experiment in all cases: NCI tumour cell line growth inhibition, 48 h
# 786-0 renal = system: 786-0 renal
# A498 renal = system: A498 renal
# A549 NSCLC = system: A549 NSCLC
# ACHN renal = system: ACHN renal
# BT-549 breast = system: BT-549 breast
# CAKI-1 renal = system: CAKI-1 renal
# CCRF-CEM leukemia = system: CCRF-CEM leukemia
# COLO 205 colon = system: COLO 205 colon
# DU-145 prostate = system: DU-145 prostate
# EKVX NSCLC = system: EKVX NSCLC
# HCC-2998 colon = system: HCC-2998 colon
# HCT-116 colon = system: HCT-116 colon
# HCT-15 colon = system: HCT-15 colon
# HL-60(TB) leukemia = system: HL-60(TB) leukemia
# HOP-62 NSCLC = system: HOP-62 NSCLC
# HOP-92 NSCLC = system: HOP-92 NSCLC
# HS 578T breast = system: HS 578T breast
# HT29 colon = system: HT29 colon
# IGROV1 ovarian = system: IGROV1 ovarian
# K-562 leukemia = system: K-562 leukemia
# KM12 colon = system: KM12 colon
# LOX IMVI melanoma = system: LOX IMVI melanoma
# M14 melanoma = system: M14 melanoma
# MALME-3M melanoma = system: MALME-3M melanoma
# MCF7 breast = system: MCF7 breast
# MDA-MB-231 breast = system: MDA-MB-231 breast
# MDA-MB-435 = system: MDA-MB-435
# MOLT-4 leukemia = system: MOLT-4 leukemia
# NCI-H226 lung = system: NCI-H226 lung
# NCI-H23 lung = system: NCI-H23 lung
# NCI-H460 lung = system: NCI-H460 lung
# NCI-H522 lung = system: NCI-H522 lung
# NCI/ADR-RES ovarian = system: NCI/ADR-RES ovarian
# OVCAR-4 ovarian = system: OVCAR-4 ovarian
# OVCAR-5 ovarian = system: OVCAR-5 ovarian
# OVCAR-8 ovarian = system: OVCAR-8 ovarian
# PC-3 prostate = system: PC-3 prostate
# RPMI-8226 leukemia = system: RPMI-8226 leukemia
# RXF 393 renal = system: RXF 393 renal
# SF-268 CNS = system: SF-268 CNS
# SF-295 CNS = system: SF-295 CNS
# SF-539 CNS = system: SF-539 CNS
# SK-MEL-2 melanoma = system: SK-MEL-2 melanoma
# SK-MEL-28 melanoma = system: SK-MEL-28 melanoma
# SK-MEL-5 melanoma = system: SK-MEL-5 melanoma
# SK-OV-3 ovarian = system: SK-OV-3 ovarian
# SN12C renal = system: SN12C renal
# SNB-19 CNS = system: SNB-19 CNS
# SNB-75 CNS = system: SNB-75 CNS
# SR leukemia = system: SR leukemia
# SW-620 colon = system: SW-620 colon
# T-47D breast = system: T-47D breast
# TK-10 renal = system: TK-10 renal
# U251 CNS = system: U251 CNS
# UACC-257 melanoma = system: UACC-257 melanoma
# UACC-62 melanoma = system: UACC-62 melanoma
# UO-31 renal = system: UO-31 renal
structure (smiles),measurement,setting,value
CN(C)CCNC(=O)c1ccc(-c2nc3ccc4[nH]ncc4c3c3c2COCC3)cc1,GI50,786-0 renal,2050 nM
same,TGI,786-0 renal,9430 nM
same,GI50,A498 renal,1190 nM
same,TGI,A498 renal,2810 nM
same,GI50,A549 NSCLC,3180 nM
same,TGI,A549 NSCLC,> 100000 nM
same,GI50,ACHN renal,2850 nM
same,TGI,ACHN renal,21700 nM
same,GI50,BT-549 breast,624 nM
same,TGI,BT-549 breast,2370 nM
same,GI50,CAKI-1 renal,1200 nM
same,TGI,CAKI-1 renal,12700 nM
same,GI50,CCRF-CEM leukemia,374 nM
same,TGI,CCRF-CEM leukemia,50400 nM
same,GI50,COLO 205 colon,480 nM
same,TGI,COLO 205 colon,2050 nM
same,GI50,DU-145 prostate,1490 nM
same,TGI,DU-145 prostate,8680 nM
same,GI50,EKVX NSCLC,2170 nM
same,TGI,EKVX NSCLC,12800 nM
same,GI50,HCC-2998 colon,1080 nM
same,TGI,HCC-2998 colon,3240 nM
same,GI50,HCT-116 colon,367 nM
same,TGI,HCT-116 colon,11300 nM
same,GI50,HCT-15 colon,10800 nM
same,TGI,HCT-15 colon,> 100000 nM
same,GI50,HL-60(TB) leukemia,1300 nM
same,TGI,HL-60(TB) leukemia,4880 nM
same,GI50,HOP-62 NSCLC,1100 nM
same,TGI,HOP-62 NSCLC,4070 nM
same,GI50,HOP-92 NSCLC,1000 nM
same,TGI,HOP-92 NSCLC,5860 nM
same,GI50,HS 578T breast,523 nM
same,TGI,HS 578T breast,3580 nM
same,GI50,HT29 colon,2050 nM
same,TGI,HT29 colon,6990 nM
same,GI50,IGROV1 ovarian,1280 nM
same,TGI,IGROV1 ovarian,9200 nM
same,GI50,K-562 leukemia,740 nM
same,TGI,K-562 leukemia,> 100000 nM
same,GI50,KM12 colon,955 nM
same,TGI,KM12 colon,5260 nM
same,GI50,LOX IMVI melanoma,465 nM
same,TGI,LOX IMVI melanoma,1850 nM
same,GI50,M14 melanoma,1370 nM
same,TGI,M14 melanoma,3270 nM
same,GI50,MALME-3M melanoma,786 nM
same,TGI,MALME-3M melanoma,2690 nM
same,GI50,MCF7 breast,293 nM
same,TGI,MCF7 breast,7660 nM
same,GI50,MDA-MB-231 breast,791 nM
same,TGI,MDA-MB-231 breast,5000 nM
same,GI50,MDA-MB-435,677 nM
same,TGI,MDA-MB-435,2150 nM
same,GI50,MOLT-4 leukemia,604 nM
same,TGI,MOLT-4 leukemia,5210 nM
same,GI50,NCI-H226 lung,1240 nM
same,TGI,NCI-H226 lung,7140 nM
same,GI50,NCI-H23 lung,1240 nM
same,TGI,NCI-H23 lung,3310 nM
same,GI50,NCI-H460 lung,2200 nM
same,TGI,NCI-H460 lung,5460 nM
same,GI50,NCI-H522 lung,188 nM
same,TGI,NCI-H522 lung,372 nM
same,GI50,NCI/ADR-RES ovarian,24100 nM
same,TGI,NCI/ADR-RES ovarian,> 100000 nM
same,GI50,OVCAR-4 ovarian,1850 nM
same,TGI,OVCAR-4 ovarian,8910 nM
same,GI50,OVCAR-5 ovarian,3010 nM
same,TGI,OVCAR-5 ovarian,28200 nM
same,GI50,OVCAR-8 ovarian,1230 nM
same,TGI,OVCAR-8 ovarian,11100 nM
same,GI50,PC-3 prostate,1120 nM
same,TGI,PC-3 prostate,8120 nM
same,GI50,RPMI-8226 leukemia,2170 nM
same,TGI,RPMI-8226 leukemia,7310 nM
same,GI50,RXF 393 renal,239 nM
same,TGI,RXF 393 renal,1040 nM
same,GI50,SF-268 CNS,292 nM
same,TGI,SF-268 CNS,1820 nM
same,GI50,SF-295 CNS,3270 nM
same,TGI,SF-295 CNS,16000 nM
same,GI50,SF-539 CNS,512 nM
same,TGI,SF-539 CNS,2210 nM
same,GI50,SK-MEL-2 melanoma,360 nM
same,TGI,SK-MEL-2 melanoma,1120 nM
same,GI50,SK-MEL-28 melanoma,1280 nM
same,TGI,SK-MEL-28 melanoma,3940 nM
same,GI50,SK-MEL-5 melanoma,2270 nM
same,TGI,SK-MEL-5 melanoma,6210 nM
same,GI50,SK-OV-3 ovarian,1060 nM
same,TGI,SK-OV-3 ovarian,28500 nM
same,GI50,SN12C renal,1000 nM
same,TGI,SN12C renal,5400 nM
same,GI50,SNB-19 CNS,587 nM
same,TGI,SNB-19 CNS,7470 nM
same,GI50,SNB-75 CNS,382 nM
same,TGI,SNB-75 CNS,1460 nM
same,GI50,SR leukemia,301 nM
same,TGI,SR leukemia,2250 nM
same,GI50,SW-620 colon,527 nM
same,TGI,SW-620 colon,4880 nM
same,GI50,T-47D breast,750 nM
same,TGI,T-47D breast,> 100000 nM
same,GI50,TK-10 renal,1450 nM
same,TGI,TK-10 renal,7130 nM
same,GI50,U251 CNS,659 nM
same,TGI,U251 CNS,16300 nM
same,GI50,UACC-257 melanoma,2410 nM
same,TGI,UACC-257 melanoma,8170 nM
same,GI50,UACC-62 melanoma,767 nM
same,TGI,UACC-62 melanoma,2570 nM
same,GI50,UO-31 renal,6750 nM
same,TGI,UO-31 renal,62400 nM
